Non-standard residues stand in square brackets, D forms with d. Residues, ends and D or L forms follow the SMILES beside them.

In data set [1] the test system is blood-brain barrier (BBB). To be noted: parent versions, in several studies; ref not given; cited from earlier work. The text has this:
(§1) We have applied this previously described strategy to a family of peptide BBB shuttles (H2N-HAIYPRH-CONH2 and H2N-THRPPMWSPVWP-CONH2[14], namely HAI and THR peptides, respectively). BBB shuttles are molecular entities of diverse origin, e.g. synthetic or natural peptides, which have the capacity to cross the blood-brain barrier (BBB) and, when covalently conjugated to drugs unable to cross the BBB unaided, can deliver them into the central nervous system (CNS)[15]. Those that cross through receptor-mediated transcytosis are also included in the term ‘molecular Trojan horses’[16],[17]. Although ...

The test system of data set [2] is BALB/c mice. Briefly: Mouse immunization with unconjugated peptides, titration of peptide-specific antibodies in serum by ELISA. It counts as in vivo. To be noted: seven i.p. doses of 50 μg, BALB/c mice (four per group), CFA first dose, IFA boosters, PBS last, ELISA on peptide-BSA conjugate, serum diluted from 1:100, anti-Mouse IgG-HRP, read at 450 nm, Fig. 3a, b. The text has this: To date, several studies have used D-peptides as tools for vaccine development. In these cases the peptides have been conjugated to large supramolecular entities, e.g. KLH and small unilamelar liposomes containing monophosphoryl lipid A[23],[24]. Nevertheless, the use of retro-D-peptides as therapeutics was controversial twenty years ago[25],[26]. Thus, to shed light on the immunogenicity of D-peptides and add further value to these compounds, we evaluated the immunological responses activated by retro-D-THR and retro-D-HAI peptides and compared them to that of their parent peptides. For this purpose, peptides (not conjugated) were i.p. administered to mice, and antibody titration was used as parameter to evaluate immunological (humoral) response by ELISA.
Four groups of four BALB/c mice were treated with either one of the parent peptides or their retro-D-version. Each mouse received seven doses i.p. of 50 μg of peptide. Complete Freund’s[49] adjuvant (CFA) was administered in the first dose, incomplete Freund’s adjuvant (IFA) in the subsequent five booster injections, and PBS in the last one. Bleedings for the titration of specific antibody production were performed before the first dose (time zero bleeding) and five days after the fourth and last dose (Supplementary Scheme 1). The peptide-specific humoral response was quantified by ELISA. MaxiSorp plates (Nunc) were treated with 0.1 mL of the corresponding peptide-BSA conjugate (1 μg) per well in carbonate buffer, overnight at 4 °C (Supplementary Fig. 6b). Afterwards, plates were blocked with 0.2 mL PBS-Tween 20 (T20) containing 2% of milk powder for 2 h a 37 °C. Each sample serum was consecutively diluted 1/2 (starting by dilution 1:100) in PBS-T20 and incubated for 1 h at 37 °C. Incubation with a secondary antibody (dil. 1/5,000) anti-Mouse IgG-HRP (ref. R1253HRP; batch 26922; Acris) was left for 1 h at 37 °C. Washes (x3) with PBST (300 μl/well) were applied after each antibody incubation. Finally, TMB (100 μl/well) was added and left for 30 min, when the stop solution (100 μl, HClaq 1 N) blocked the colorimetric reaction. Plates were read at 450 nm (Fig. 3a–c). […]
Data were processed using GraphPad Prism 6.0 software. […] Data from human serum stability assays were analyzed as non-linear one-phase exponential decay model for L-peptides and as standard linear model with zero slope for D-peptides. Deviations from a value of 100 at each dilution point were assessed using a linear model, in which group and interaction were included as covariates. In immune response studies, each dilution point (in ELISAs) was analyzed by a Mann-Whitney test to assess differences between S0 with S1 or S2. […]
(ELISA stands for enzyme-linked immunosorbent assay.)

Data set [3] is described as follows: Protease resistance. The class given is in vitro ADME. To be noted: as stated in abstract. How it is done: Data were processed using GraphPad Prism 6.0 software. All results are presented as mean + SEM. Data from human serum stability assays were analyzed as non-linear one-phase exponential decay model for L-peptides and as standard linear model with zero slope for D-peptides. Deviations from a value of 100 at each dilution point were assessed using a linear model, in which group and interaction were included as covariates. In immune response studies, each dilution point (in ELISAs) was analyzed by a Mann-Whitney test to assess differences between S0 with S1 or S2. In both cases, 5% was set as a threshold for statistical significance.

The conditions of data set [4]: demonstrated earlier by the authors' laboratory; ref 21 (printed for retro-D-THR); cited from earlier work.
From the text: as §1

On to “H2N-HAIYPRH-CONH2 [parent L-peptide BBB shuttle, H2N-HAIYPRH-CONH2]”, for which the BBB permeability result in data set [1] is listed as “efficient BBB permeability”.

Take `CSCC[C@@H](NC(=O)[C@@H](Cc1c[nH]c2ccccc12)NC(=O)[C@@H](CO)NC(=O)[C@H]1CCCN1C(=O)[C@H](NC(=O)[C@@H](Cc1c[nH]c2ccccc12)NC(=O)[C@H]1CCCN1)C(C)C)C(=O)N1CCC[C@@H]1C(=O)N1CCC[C@@H]1C(=O)N[C@H](CCCNC(=N)N)C(=O)N[C@H](Cc1c[nH]cn1)C(=O)N[C@@H](C(N)=O)[C@H](C)O` [retro-D-THR] (H-[dP][dW][dV][dP][dS][dW][dM][dP][dP][dR][dH][dT]-NH2): the “immunogenicity (peptide-specific humoral response, antibody titration)” value is given as “not immunogenic per se” in data set [2] and “much less immunogenic than the parent peptide” in data set [2] (listed as H2N-pwvpswmpprht-CONH2). For the same compound, in data set [3], the protease resistance entry was “protease-resistant”. Further, the protease-resistance entry in data set [4] was “protease-resistance”.

On to `CC[C@@H](C)[C@@H](NC(=O)[C@@H](Cc1ccc(O)cc1)NC(=O)[C@H]1CCCN1C(=O)[C@@H](CCCNC(=N)N)NC(=O)[C@H](N)Cc1c[nH]cn1)C(=O)N[C@H](C)C(=O)N[C@H](Cc1c[nH]cn1)C(N)=O` [retro-D-HAI], for which the “immunogenicity (peptide-specific humoral response, antibody titration)” value in data set [2] is “not immunogenic per se”; in data set [2] (listed as H2N-hrpyiah-CONH2), “much less immunogenic than the parent peptide”. The protease resistance entry in data set [3] is recorded as “protease-resistant”. Moreover, in data set [4], the protease-resistance result is on record as “protease-resistance”.

On to “H2N-THRPPMWSPVWP-CONH2 (H-THRPPMWSPVWP-NH2) [parent L-peptide BBB shuttle, H2N-…-CONH2]”, for which the BBB permeability result in data set [1] is given as “efficient BBB permeability”.

Values taken from publication PMC5915530, “Immunosilencing peptides by stereochemical inversion and sequence reversal: retro-D-peptides” (Scientific Reports, 2018).
